Laboratory results taken from patent publication US9683014B2, “Dipeptide mimetics of NGF and BDNF neurotrophins” (UCHREZHDENIE ROSSIISKOI AKADEMII MEDITSYNSKIKH NAUK …, priority 2009, dated 2017).
Read-outs that look alike come from different tables or passages of the source.

What was measured:
[1] = tested on: rats with bilateral ligation of the carotid artery; details: 1 mg/kg i.p.
Description: (§1) The experiments were conducted on male outbred rats weighing 350-420 g. The test compound was administered intraperitoneally at a dose of 1 mg/kg. On day 1 the animals were given the first injection of the test compound. 24 hours later (day 2) they underwent surgery for a bilateral ligation of the carotid artery. Following another 24 h (day 3) the animals were given the second injection of the test compound. 96 hours later (day 7) they were given the third injection of the test compound. Following another 24 h (day 8) the animals were tested in an open field test (Jackson H. F., Broadhurst P. L. The effects of parachlorophenylalanine and stimulus intensity on open-field test measures in rats. Neuropharmacology, 1982, 21, 1279-1282). On the next day (day 9) they were allowed to explore new objects (a modification of the test described in Ennaceur A., Delacour J. A new one-trial test for neurobiological studies of memory in rats. 1: Behavioral data. Behavioral Brain Research, 1988, 31, 47-59). On day 11 the animals were given the fourth injection of the test compound. The animals were sacrificed by decapitation 120 hours after the last injection of the test compound (day 16).
(§2) The rats were distributed into 3 groups (n≧8 for each group) at random. Group 1 (sham-operated) comprised animals that were anesthetized followed by a sham operation and subsequently received 4 injections of physiological saline according to the experimental set-up; Group 2 (ligation) comprised animals that were anesthetized followed by surgery for a bilateral ligation of the carotid artery and subsequently received 4 injections of saline according to the experimental set-up; Group 3 (ligation+test compound) comprised animals that were anesthetized followed by surgery for a bilateral ligation of the carotid artery and subsequently received 4 injections of the test compound according to the experimental set-up.

[2] = tested on: rat cerebral cortex cells; details: 1 mg/kg i.p., 4 injections; cells isolated day 16; FIG. 2.9
Description: as §1, §2

[3] = tested on: rats with hemorrhagic stroke; details: 1 mg/kg
Description: The experiments were carried out on male white outbred rats weighing 220-250 g. […] The local cerebral hemorrhage (post-traumatic intracerebral hemorrhage) as a hemorrhagic stroke (HS) model was produced by the method of Makarenko (Makarenko A. N. et al., Zh. V. N. D. 2002, 52(6), 765-768).
To produce the stroke, rats were anesthetized with chloral hydrate (400 mg/kg i.m.) followed by craniotomy. The cerebral tissue in the region of internal capsule was destroyed followed (in 2-3 min) by the injection of blood (0.02-0.03 ml) taken from under the animal's tongue.
The neurological deficits, changes in the coordination of movements, muscle tone, orientation and exploratory behavior of the rats were recorded at 24 h after surgery.
The rats were monitored for 14 days after surgery. Animal's physical condition and behavioral features were recorded at 1, 3, 7 and 14 days.
The animals were distributed into 3 groups. Group 1 comprised sham-operated (SO) rats with craniotomy alone, group 2 comprised animals with HS, and group 3 comprised rats with HS treated with GK-2 (1 mg/kg at 3 h after surgery and every 48 hours thereafter for a total of 6 administrations). Group 1 and group 2 animals were treated with physiological saline in an equivalent volume.
Changes in animals' physical condition and behavior were evaluated by conventional methods. The neurological status was assessed by scoring neurological deficits according to MacGrow's stroke scoring system as modified by I. V. Gannushkina; by the muscle tone and coordination of movements monitoring methods; cognitive function was assessed by the passive avoidance conditioned reflex (PAR); and orientation and exploratory behavior by using the open field test. Also the drug's effect on the survival of rats was monitored.

**Q.** How did the “horizontal motor activity in the open field test” value ([1]; day 8, ligation reduced it, FIG. 2.5) turn out when `NCCCC[C@H](NC(=O)[C@H](CCC(=O)O)NC(=O)CCC(=O)O)C(=O)NCCCCCCNC(=O)[C@H](CCCCN)NC(=O)[C@H](CCC(=O)O)NC(=O)CCC(=O)O` [GK-2, bis-(N-monosuccinyl-glutamyl-lysine) hexamethylenediamide] was run?
**A.** restored it to the level found in the sham-operated rats

**Q.** And the “vertical motor activity in the open field test” value ([1]; day 8, ligation reduced it, FIG. 2.6)?
**A.** restored it to the level found in the sham-operated rats

**Q.** And the “total object smelling time and first-minute object exploration” value ([1]; day 9, FIGS. 2.7, 2.8)?
**A.** not different from the sham-operated rats

**Q.** What about the “viability of the cortical cells (MTT)” value [2] of the same compound?
**A.** enhanced

**Q.** And the “Relative number of animals with paralysis of 1 to 4 limbs” value ([3]; Day 1, SO 0, HS 0)?
**A.** 0%

**Q.** And the “Relative number of animals with paresis of 1 to 4 limbs” value ([3]; Day 1, SO 0, HS 37.5)?
**A.** 20%

**Q.** What about the “Relative number of animals with ring movements” value ([3]; Day 1, SO 0, HS 50) of the same compound?
**A.** 20%

**Q.** And the “Relative number of animals with limb weakness” value ([3]; Day 1, SO 30, HS 75)?
**A.** 30%

**Q.** What about the “Relative number of animals with floppiness & slowness of movements” value (“Relative number of animals … of movements” for short) ([3]; Day 1, SO 40, HS 100) of the same compound?
**A.** 40%

**Q.** And the “Number of rats failing to mount the horizontal bar, abs.” value (from here on “Number of rats failing … abs.”) ([3]; Day 1, sham 3/10, stroke 6/8)?
**A.** 4/10

**Q.** What about the “Number of rats missing the rotating rod (3 rpm) during 2 min, abs.” value (“Number of rats missing the rotating rod … abs.” below) ([3]; Day 1, sham 3/10, stroke 6/8) of the same compound?
**A.** 4/10

**Q.** What about the Vertical motor activity ([3]; Day 1, sham 5.0, stroke 1.25) of the same compound?
**A.** 3.7 ± 0.9

**Q.** What about the Exploration of openings ([3]; Day 1, sham 10.3, stroke 1.9) of the same compound?
**A.** 3.6 ± 0.7

**Q.** What about the Horizontal motor activity ([3]; Day 1, sham 14.1, stroke 4.4) of the same compound?
**A.** 9.9 ± 2.1

**Q.** And the “Number of rats failing to mount the horizontal bar, %” value (“Number of rats failing … %” for short) ([3]; Day 1, sham 30, stroke 75)?
**A.** 40%

**Q.** And the “Number of rats missing the rotating rod (3 rpm) during 2 min, %” value (“Number of rats missing the rotating rod … %” for short) ([3]; Day 1, sham 30, stroke 75)?
**A.** 40%

**Q.** What about the Cumulative index ([3]; Day 1, sham 30.3, stroke 7.5) of the same compound?
**A.** 17.2 ± 3.5

**Q.** What about the “Relative number of animals with paralysis of 1 to 4 limbs” value ([3]; Day 3, SO 0, HS 0) of the same compound?
**A.** 0%

**Q.** And the “Relative number of animals with paresis of 1 to 4 limbs” value ([3]; Day 3, SO 0, HS 25)?
**A.** 0%

**Q.** What about the “Relative number of animals with ring movements” value ([3]; Day 3, SO 0, HS 37.5) of the same compound?
**A.** 10%

**Q.** What about the “Relative number of animals with limb weakness” value ([3]; Day 3, SO 30, HS 75) of the same compound?
**A.** 30%

**Q.** What about the “Relative number of animals … of movements” value ([3]; Day 3, SO 30, HS 100) of the same compound?
**A.** 30%

**Q.** What about the “Number of rats failing … abs.” value ([3]; Day 3, sham 2/10, stroke 3/8) of the same compound?
**A.** 2/10

**Q.** What about the “Number of rats missing the rotating rod … abs.” value ([3]; Day 3, sham 2/10, stroke 5/8) of the same compound?
**A.** 3/10

**Q.** And the Exploration of openings ([3]; Day 3, sham 4.0, stroke 3.1)?
**A.** 3.7 ± 0.9

**Q.** And the Vertical motor activity ([3]; Day 3, sham 4.6, stroke 1.1)?
**A.** 2.4 ± 0.6

**Q.** What about the Horizontal motor activity ([3]; Day 3, sham 9.3, stroke 3.0) of the same compound?
**A.** 5.6 ± 1.4

**Q.** What about the Cumulative index ([3]; Day 3, sham 17.9, stroke 7.2) of the same compound?
**A.** 11.7 ± 2.4

**Q.** What about the “Number of rats failing … %” value ([3]; Day 3, sham 20, stroke 37.5) of the same compound?
**A.** 20%

**Q.** What about the “Number of rats missing the rotating rod … %” value ([3]; Day 3, sham 20, stroke 62.5) of the same compound?
**A.** 30%

**Q.** What about the “Relative number of animals with paralysis of 1 to 4 limbs” value ([3]; Day 7, SO 0, HS 0) of the same compound?
**A.** 0%

**Q.** And the “Relative number of animals with paresis of 1 to 4 limbs” value ([3]; Day 7, SO 0, HS 0)?
**A.** 0%

**Q.** And the “Relative number of animals with ring movements” value ([3]; Day 7, SO 0, HS 0)?
**A.** 0%

**Q.** What about the “Relative number of animals … of movements” value ([3]; Day 7, SO 0, HS 43) of the same compound?
**A.** 0%

**Q.** And the “Relative number of animals with limb weakness” value ([3]; Day 7, SO 0, HS 43)?
**A.** 0%

**Q.** What about the “Number of rats failing … %” value ([3]; Day 7, sham 0, stroke 43) of the same compound?
**A.** 10%

**Q.** What about the “Number of rats missing the rotating rod … %” value ([3]; Day 7, sham 0, stroke 43) of the same compound?
**A.** 20%

**Q.** What about the “Number of rats failing … abs.” value ([3]; Day 7, sham 0/10, stroke 3/7) of the same compound?
**A.** 1/10

**Q.** What about the “Number of rats missing the rotating rod … abs.” value ([3]; Day 7, sham 0/10, stroke 3/7) of the same compound?
**A.** 2/10

**Q.** And the Exploration of openings ([3]; Day 7, sham 3.7, stroke 2.9)?
**A.** 4.3 ± 0.9

**Q.** What about the Vertical motor activity ([3]; Day 7, sham 4.1, stroke 1.0) of the same compound?
**A.** 4.4 ± 0.7

**Q.** What about the Horizontal motor activity ([3]; Day 7, sham 8.6, stroke 3.7) of the same compound?
**A.** 8.1 ± 1.6

**Q.** What about the Cumulative index ([3]; Day 7, sham 16.4, stroke 7.6) of the same compound?
**A.** 16.8 ± 2.7

**Q.** What about the “Relative number of animals … of movements” value ([3]; Day 14, SO 0, HS 0) of the same compound?
**A.** 0%

**Q.** And the “Relative number of animals with limb weakness” value ([3]; Day 14, SO 0, HS 0)?
**A.** 0%

**Q.** And the “Relative number of animals with paralysis of 1 to 4 limbs” value ([3]; Day 14, SO 0, HS 0)?
**A.** 0%

**Q.** What about the “Relative number of animals with paresis of 1 to 4 limbs” value ([3]; Day 14, SO 0, HS 0) of the same compound?
**A.** 0%

**Q.** And the “Relative number of animals with ring movements” value ([3]; Day 14, SO 0, HS 0)?
**A.** 0%

**Q.** What about the “Number of rats failing … %” value ([3]; Day 14, sham 0, stroke 17) of the same compound?
**A.** 0%

**Q.** And the “Number of rats missing the rotating rod … %” value ([3]; Day 14, sham 0, stroke 17)?
**A.** 0%

**Q.** And the “Number of rats failing … abs.” value ([3]; Day 14, sham 0/10, stroke 1/6)?
**A.** 0/10

**Q.** What about the “Number of rats missing the rotating rod … abs.” value ([3]; Day 14, sham 0/10, stroke 1/6) of the same compound?
**A.** 0/10

**Q.** What about the Exploration of openings ([3]; Day 14, sham 5.0, stroke 2.8) of the same compound?
**A.** 3.2 ± 0.9

**Q.** And the Vertical motor activity ([3]; Day 14, sham 5.1, stroke 1.0)?
**A.** 2.8 ± 0.9

**Q.** And the Horizontal motor activity ([3]; Day 14, sham 9.1, stroke 1.8)?
**A.** 7.5 ± 1.7

**Q.** What about the Cumulative index ([3]; Day 14, sham 19.2, stroke 5.7) of the same compound?
**A.** 13.5 ± 2.9
